We go through one compound from patent US11905264B1, “N′-(2-(5-(4-chlorophenyl)-1,3,4-oxadiazol-2-ylthio)acetoxy)-4-nitrobenzimidamide as an antimicrobial compound” (KING FAISAL UNIVERSITY, priority 2023, dated 2024).

What all share (format): cell-based
One test deals with Pseudomonas aeruginosa. Kind of test: Agar plate disc-diffusion, antibacterial inhibition zone. Particulars: Gram negative, nutrient agar, 37° C. Here is the method:
(§1) The agar plate disc-diffusion method was applied. […] The discs were then placed onto the surface of agar plates (nutrient agar for bacteria and Sabouraud's dextrose agar for fungi) seeded with the test organism. Each plate contained 15 mL of the agar medium, previously seeded with 0.2 mL of the broth culture of each organism pregrown for 18 hours. The plates were incubated at 37° C. for 48 hours and 72 hours for fungi. The inhibition zones were measured in mm. Discs impregnated with DMSO were used as a control, and their inhibition zone was subtracted from the tested compound's actual inhibition zone.
Background: A growth-free zone around the sample is the usual read-out of agar diffusion tests.

A further test deals with Staphylococcus aureus. The description is as above. Particulars: Gram positive, nutrient agar, 37° C. Here is the method: as §1
The test system of another test is Escherichia coli. The description is as above. The note with it: Gram negative, nutrient agar, 37° C. Here is the method:
as §1

Another test relates to Bacillus cereus. The test is described as above. The note with it: Gram positive, nutrient agar, 37° C. As to the method:
as §1

For a further test, the system named is Aspergillus flavus. Kind of test: Agar plate disc-diffusion, antifungal inhibition zone. Particulars: Sabouraud's dextrose agar, 72 hours. Here is the method: as §1
Test [1] relates to Chrysosporium keratinophilum. The test is described as above. The note with it: Sabouraud's dextrose agar, 72 hours. Here is the method: as §1
Setting [2] is: A = concentration of comp. = 10,000 μL.
Setting [3] is: B = concentration of comp. = 30,000 μL.
Setting [4] is: C = concentration of comp. = 50,000 μL.

In the case of `N/C(=N\OC(=O)CSc1nnc(-c2ccc(Cl)cc2)o1)c1ccc([N+](=O)[O-])cc1` [Compound 3, N′-(2-(5-(4-chlorophenyl)-1,3,4-oxadiazol-2-ylthio)acetoxy)-4-nitrobenzimidamide], in the test on Pseudomonas aeruginosa (setting [2]), the “inhibition zone, Pseudomonas aeruginosa, A” value came to 22 mm. Also, in the test on Pseudomonas aeruginosa (setting [3]), the “inhibition zone, Pseudomonas aeruginosa, B” value is on record as 26 mm. Further, the “inhibition zone, Pseudomonas aeruginosa, C” value in the test with Pseudomonas aeruginosa (setting [4]) was 40 mm. In addition, the “inhibition zone, Staphylococcus aureus, A” value in the test with Staphylococcus aureus (setting [2]) turned out to be 17 mm. Moreover, the “inhibition zone, Staphylococcus aureus, B” value in the test with Staphylococcus aureus (setting [3]) came out at 20 mm. Also, in the test on Staphylococcus aureus (setting [4]), the “inhibition zone, Staphylococcus aureus, C” value was found to be 37 mm. Further, in the test with Escherichia coli (setting [2]), the “inhibition zone, Escherichia coli, A” value is listed as 27 mm. Besides, the “inhibition zone, Escherichia coli, B” value with Escherichia coli (setting [3]) was 31 mm. The “inhibition zone, Escherichia coli, C” value in the test on Escherichia coli (setting [4]) worked out at 50 mm. In addition, the “inhibition zone, Bacillus Cereus, A” value in the test with Bacillus cereus (setting [2]) is 27 mm. In addition, the “inhibition zone, Bacillus Cereus, B” value in the test with Bacillus cereus (setting [3]) was 29 mm. Besides, the “inhibition zone, Bacillus Cereus, C” value in the test on Bacillus cereus (setting [4]) was 40 mm. Further, the “inhibition zone, Aspergillus flavus, A” value with Aspergillus flavus (setting [2]) is reported as 23 mm. Besides, the “inhibition zone, Aspergillus flavus, B” value in the test on Aspergillus flavus (setting [3]) was 27 mm. In addition, in the test with Aspergillus flavus (setting [4]), the “inhibition zone, Aspergillus flavus, C” value was 39 mm. In addition, the “inhibition zone, Chrysosporium keratinophilum, A” value in test [1] (A =) was 26 mm. The “inhibition zone, Chrysosporium keratinophilum, B” value in test [1] (setting [3]) is 28 mm. Besides, the “inhibition zone, Chrysosporium keratinophilum, C” value in test [1] (setting [4]) came out at 41 mm.
